Results on seven compounds are retold here after ChEMBL document CHEMBL1201862, “PubChem BioAssay data set” (2004).

Among the test systems are NCI-H460; OVCAR-8; PC-3; Hs-578T; MCF7; NCI-H226; Malme-3M; SR; IGROV-1; U-251; HL-60; K562; SK-OV-3; SNB-19; NCI/ADR-RES; A549; SF-268; DU-145; ACHN; A498.
Holding throughout (assay): inhibition of tumour cell growth, NCI panel, 48 h

Molecules are shown by their SMILES. “And” between values parts separate entries of the source, which are not always exact repeats. Equal values may be shown once.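 Method: 48-hour compound exposure of cells in 96-well plates, five concentrations, linear interpolation of endpoints. At the GI50, growth is halved.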 The source made the active and inactive calls. Rule as the data show it: active = GI50 up to about 1.1 µM and inactive = higher.

In the case of `COc1cc(C2SCC(=O)N2c2ccc(Cl)cc2)cc(I)c1O` (stereo unspecified), the GI50 in the experiment on NCI-H460 was 2.74 µM (inactive); in the experiment with OVCAR-8, > 100 µM (inactive); in the experiment with PC-3, > 100 µM (inactive); with Hs-578T, 97.1 µM (inactive); with MCF7, 4.75 µM (inactive); in the experiment with NCI-H226 it was > 90.2 µM (inactive). Further, the GI50 in the experiment on Malme-3M was > 100 µM (inactive); in the experiment on SR it was 3.53 µM (inactive); in the experiment on IGROV-1 it was > 100 µM (inactive); in the experiment on U-251 it was > 100 µM (inactive); with HL-60, 15.7 µM (inactive); with K562 it was 0.501 µM (active). In addition, the GI50 in the experiment with SK-OV-3 is > 100 µM (inactive); in the experiment with SNB-19 it was > 100 µM (inactive); in the experiment on NCI/ADR-RES, > 69 µM (inactive); in the experiment with A549 it was 46.7 µM (inactive); with SF-268, > 86.7 µM (inactive); in the experiment with DU-145, > 100 µM (inactive).

For the compound `O=C1CC[C@@]23CC(=O)O[C@@H]2CCCC3C1` (stereo partly specified), the GI50 in the experiment with NCI-H460, in the experiment on OVCAR-8, in the experiment with ACHN, with PC-3, in the experiment with Hs-578T and in the experiment with MCF7 was > 100 µM (inactive) throughout. The GI50 with NCI-H226, in the experiment on Malme-3M, with SR, in the experiment on IGROV-1, with U-251 and in the experiment with HL-60 was > 100 µM (inactive) in each case. The GI50 in the experiment on K562, in the experiment with SK-OV-3, with SNB-19, in the experiment on NCI/ADR-RES, in the experiment on A549 and with SF-268 was > 100 µM (inactive) each time. Besides, in the experiment with DU-145, the GI50 is > 100 µM (inactive).

Take `CCOC(=O)C(C(=S)Nc1ccccc1)c1nn2c(=O)cc(C)nc2s1` (stereo unspecified): the GI50 with NCI-H460 was 31.6 µM (inactive); in the experiment on OVCAR-8 it was 23.6 µM (inactive); with ACHN, 20.5 µM (inactive); in the experiment on PC-3, 24.8 µM (inactive); with Hs-578T, 41 µM (inactive); in the experiment with MCF7, 19.4 µM (inactive). Moreover, the GI50 was 21.7 µM (inactive) in the experiment with NCI-H226; 22.9 µM (inactive) in the experiment with Malme-3M; 25.1 µM (inactive) with SR; 36.7 µM (inactive) with IGROV-1; 26.7 µM (inactive) in the experiment with U-251; 20.5 µM (inactive) with HL-60. Further, the GI50 was 20.9 µM (inactive) with K562; 23.3 µM (inactive) with SK-OV-3; 35.6 µM (inactive) with SNB-19; 26.7 µM (inactive) with NCI/ADR-RES; 37.4 µM (inactive) with A549; 28.8 µM (inactive) in the experiment on SF-268. Further, the GI50 with DU-145 was 36.3 µM (inactive).

As to `COC(=O)NCCc1n[nH]c2c1C(=O)C=C(Nc1ccccc1OC)C2=O`, the GI50 was 28.2 µM (inactive) with NCI-H460; 13.6 µM (inactive) in the experiment with OVCAR-8; 38.6 µM (inactive) in the experiment with ACHN; 31.6 µM (inactive) in the experiment on PC-3; 28.4 µM (inactive) in the experiment on Hs-578T; 16 µM (inactive) with MCF7. Also, the GI50 was 14.2 µM (inactive) with Malme-3M; 28.5 µM (inactive) with SR; 26.5 µM (inactive) in the experiment with IGROV-1; 24.8 µM (inactive) in the experiment on U-251; 21.8 µM (inactive) in the experiment on HL-60; 30 µM (inactive) in the experiment on K562. Also, the GI50 in the experiment with SK-OV-3 is > 100 µM (inactive); in the experiment with SNB-19, > 100 µM (inactive); with NCI/ADR-RES it was 21.1 µM (inactive); with A498, 31.7 µM (inactive); in the experiment with A549, 41.2 µM (inactive); in the experiment with SF-268, 45.7 µM (inactive). The GI50 with DU-145 was 42.4 µM (inactive).

In the case of `CCC(C)C1=C(O)[N+]2([O-])Oc3ccc(-c4c(O)c(O)c(-c5ccc(OC(C)=O)cc5)c(OC(C)=O)c4OC(C)=O)cc3OC2(C(C)CC)C(=O)N1O` (stereo unspecified), the GI50 with NCI-H460, in the experiment with OVCAR-8, with ACHN, in the experiment on PC-3, in the experiment on Hs-578T and with MCF7 was > 50 µM (inactive) in each case. In addition, the GI50 in the experiment with Malme-3M was 34.6 µM (inactive) and 45.2 µM (inactive); in the experiment with SR, 22.3 µM (inactive) and 13.9 µM (inactive); in the experiment with IGROV-1, 25.6 µM (inactive) and 17.1 µM (inactive); with U-251 it was > 50 µM (inactive); in the experiment on HL-60 it was 24 µM (inactive) and 27.4 µM (inactive); with K562, 28.8 µM (inactive) and 15.4 µM (inactive). Moreover, the GI50 with SK-OV-3 is > 50 µM (inactive); in the experiment on SNB-19, > 50 µM (inactive); in the experiment with NCI/ADR-RES, > 50 µM (inactive); with A498, 19.3 µM (inactive); with A549, > 50 µM (inactive) and 29.2 µM (inactive); in the experiment on SF-268 it was 41.2 µM (inactive). For the same compound, the GI50 in the experiment on DU-145 was > 50 µM (inactive).

For the compound `O=C(O)c1nnsc1COCc1ccccc1`, the GI50 in the experiment on NCI-H460, in the experiment with OVCAR-8, with ACHN, in the experiment with PC-3, with Hs-578T and in the experiment on MCF7 was > 100 µM (inactive) each time. The GI50 in the experiment with Malme-3M, in the experiment with SR, with IGROV-1, in the experiment on U-251, in the experiment on K562 and in the experiment on SK-OV-3 was > 100 µM (inactive) throughout. Besides, the GI50 with SNB-19, in the experiment on NCI/ADR-RES, in the experiment with A498, in the experiment on A549, in the experiment with SF-268 and in the experiment with DU-145 was > 100 µM (inactive) each time.

On to `Cc1cc(C)nc(NS(=O)(=O)c2ccc(Nc3c4ccccc4nc4c(C(=O)NC(CO)(CO)CO)cccc34)cc2)n1`, for which the GI50 was 15.8 µM (inactive) with NCI-H460; 39.3 µM (inactive) with OVCAR-8; 34 µM (inactive) in the experiment on ACHN; 35.6 µM (inactive) in the experiment with PC-3; 38.4 µM (inactive) with Hs-578T; 25.8 µM (inactive) in the experiment with MCF7. Further, the GI50 was > 10 µM (inactive) in the experiment with Malme-3M; 23.2 µM (inactive) in the experiment with SR; 40.1 µM (inactive) in the experiment on IGROV-1; 24.8 µM (inactive) in the experiment on U-251; 31.6 µM (inactive) with HL-60; 31.4 µM (inactive) with K562. The GI50 in the experiment with SK-OV-3 is 31.9 µM (inactive); in the experiment with SNB-19 it was 25.4 µM (inactive); with NCI/ADR-RES, > 100 µM (inactive); in the experiment with A498, 31.3 µM (inactive); with A549, 27.5 µM (inactive); in the experiment on SF-268 it was 29.5 µM (inactive). Also, the GI50 in the experiment with DU-145 was 55 µM (inactive).
